Here are results for four compounds from ChEMBL document CHEMBL1201862, “PubChem BioAssay data set” (2004).

Test systems include COLO 205; HCT-15; HL-60; HOP-92; HT-29; NCI-H226; NCI-H460; NCI/ADR-RES; OVCAR-3; OVCAR-4; SF-268; SK-MEL-5; SK-OV-3; SR; SW-620; T47D; TK-10; U-251; A498.
Holding throughout (assay): NCI anticancer screen, dose series, 48 h

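Five compound concentrations were applied to cells in 96-well plates for 48 hours; endpoints were derived by simple linear interpolation of the resulting dose-response curve. The concentration for 50% growth inhibition is given as GI50.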 Active and inactive are the calls of the source. Rule as the data show it: active = GI50 up to about 1.1 µM and inactive = higher.

Take `N#Cc1cc(C#N)c(Cl)nc1N`: the GI50 with COLO 205 was > 10 µM (inactive); in the test on HCT-15, more than 10 µM; in the test with HL-60, 3.48 µM (inactive); in the test on HOP-92, > 10 µM (inactive); in the test on HT-29, > 10 µM (inactive); in the test on NCI-H226 it was > 10 µM (inactive). Also, the GI50 in the test with NCI-H460, in the test with NCI/ADR-RES, in the test with OVCAR-3, in the test on OVCAR-4, in the test with SF-268 and in the test on SK-MEL-5 was > 10 µM (inactive) each time. For the same compound, the GI50 in the test with SK-OV-3, in the test on SR, in the test with SW-620, in the test on T47D, in the test on TK-10 and in the test on U-251 was > 10 µM (inactive) in each case.

Turning to `CC(C)(C)c1cc2c(O)c(c1)C(c1ccccc1)c1cc(C(C)(C)C)cc(c1O)Cc1cc(C(C)(C)C)cc(c1O)C(c1ccccc1)c1cc(C(C)(C)C)cc(c1O)C2` (centres undefined), the GI50 was > 100 µM (inactive) in the test with A498; > 100 µM (inactive) in the test on COLO 205; more than 100 µM in the test with HCT-15; 28.7 µM (inactive) in the test with HL-60; > 100 µM (inactive) in the test with HOP-92; > 100 µM (inactive) with HT-29. The GI50 with NCI-H460, with NCI/ADR-RES, with OVCAR-3, in the test on OVCAR-4, in the test on SF-268 and in the test on SK-MEL-5 was > 100 µM (inactive) each time. Further, the GI50 is 62.7 µM (inactive) with SR; > 100 µM (inactive) in the test with SW-620; > 100 µM (inactive) with T47D; > 100 µM (inactive) with TK-10; > 100 µM (inactive) in the test with U-251.

Take `Cc1ccc(S(=O)(=O)NNCNC(=O)c2ccccc2)cc1`: the GI50 in the test with COLO 205 is > 100 µM (inactive); in the test with HCT-15, 70.8 µM; in the test on HL-60, 16.4 µM (inactive); with HOP-92 it was > 100 µM (inactive); in the test with HT-29 it was 61.2 µM (inactive); with NCI-H226, > 100 µM (inactive). The GI50 was 54.6 µM (inactive) in the test with NCI/ADR-RES; > 100 µM (inactive) in the test with OVCAR-3; > 100 µM (inactive) in the test with OVCAR-4; > 100 µM (inactive) with SF-268; > 100 µM (inactive) in the test on SK-MEL-5; > 100 µM (inactive) in the test on SK-OV-3. In addition, the GI50 is 2.29 µM (inactive) with SR; 94.8 µM (inactive) with SW-620; 83.4 µM (inactive) in the test on T47D; > 100 µM (inactive) in the test on TK-10; > 100 µM (inactive) in the test with U-251.

In the case of `COc1cc(OC)cc(OCc2ccc3nc(-c4ccccc4)c(Cl)nc3c2)c1`, the GI50 in the test with A498 was 35 µM (inactive); in the test on COLO 205 it was 25.2 µM (inactive); in the test with HCT-15 it was more than 100 µM; in the test with HL-60 it was 54.6 µM (inactive); with HOP-92 it was 18.8 µM (inactive); in the test with HT-29, 48.5 µM (inactive). Also, the GI50 in the test with NCI-H460 was 37 µM (inactive); in the test on NCI/ADR-RES it was 25 µM (inactive); in the test with OVCAR-3, > 100 µM (inactive); with OVCAR-4 it was 24.1 µM (inactive); in the test with SF-268, 30.5 µM (inactive); with SK-MEL-5 it was 14.5 µM (inactive). The GI50 in the test with SR was 19.7 µM (inactive); in the test on SW-620, 59.8 µM (inactive); with T47D it was 24.7 µM (inactive); in the test on TK-10, 20.2 µM (inactive); with U-251, 20.9 µM (inactive).
